Results as given in US20160304970A1, “GENE BIOMARKER TO DIAGNOSE METASTIC LIVER CANCER AND METHODS FOR TARGETING THE SAME” (University of Southern California, priority 2015, published 2016).
Values joined by “and” are separate entries in the source; they are usually repeats but may differ in a detail not shown here. Equal entries are not always repeated.

Key:
CD133 (+) Huh7 cells [1] = experiment: CD133 cell viability screening (luminescence, CellTiter-Glo); assay type: cell-based; settings: Homo sapiens, Huh-7
Procedure: (§1) CD133(+) and CD133(−) Huh7 cells were freshly sorted using the MACS CD133 micro bead kit (Miltenyi Biotec, 130-050-801) and were seeded in 100 μl medium containing 5000 cells per well in a 96-well plate. Once the cells attached, the FDA approved drug library was added to each well to a final concentration of 20 μg/ml in duplicate. After incubation for 48 hours, the cell viability was determined by a luminescence assay. […] After 16 hours, 1 μl of a […] drug solution was individually added to the 96 wells, resulting in a 20 μg/ml final concentration for most compounds. After 48 hours, CellTiter-Glo® Reagent (G8233, Promega) was added and the luminescence signal was measured with an automated plate reader. The raw data for each well was background-corrected by DMSO control wells on the same plate.
Freshly sorted CD133 (+) Huh7 or mouse TICs were plated in 100 μl of medium containing 5000 cells per well in a 96-well plate. After 16 hours, 0.5 μl of a 2 μg/ml, 1 μg/ml, 0.2 μg/ml, 0.1 μg/ml, 0.02 μg/ml, or 0.01 μg/ml compound was added to each well in triplicate, resulting in a 10 μg/ml, 5 μg/ml, 1 μg/ml, 0.5 μg/ml, 0.1 μg/ml, and 0.05 μg/ml final concentration for most compounds, respectively. After 48 hours, the cells were either measured for cell viability by Cell-Glo® Reagent (Promega), or fixed with 1% PFA (paraformaldehyde) and stained with DAPI for high-throughput screening.

[2] = as above; assay type: cell-based; settings: human, CD133 (−) Huh7 cells (freshly MACS-sorted)
Procedure: as §1

CD133 (+) Huh7 cells [3] = experiment: Anchorage-independent growth assay in soft agar; assay type: cell-based, human; settings: retinoic acid 5 μg/ml, SAHA 0.5 μg/ml; 2 weeks
Procedure: Freshly sorted CD133 (+)/(−) Huh7 cells were mixed with 0.35% agarose containing 1000 cells per well in culture medium with retinoic acid (5 μg/ml), SAHA (0.5 μg/ml), or a combination of both. After 2 weeks, the colony numbers were counted.

TICs [4] = experiment: Annexin V-PI staining and caspase activity analysis; assay type: cell-based; settings: 6 and 12 hours; p<0.05
Procedure: Annexin V staining was performed according to the manufacturer's instructions (A35110, Invitrogen). In brief, after drug treatment, the cells were washed twice with ice-cold phosphate-buffered saline (PBS) and detached by trypsin/EDTA. The cells were then incubated with 5 μl of Annexin V-APC in a 100 μl of cell suspension at room temperature for 15 minutes. After incubation, the cells were mixed with propidium iodide solution and analyzed by flow cytometry.
The caspase activity assay was performed according to the manufacturer's instructions (G8090, G8200, and G8210, Promega). In brief, 10,000 cells were plated into each well of a 96-well plate. After the cells attached, the drugs (5 μg/ml of ATRA and 0.5 μg/ml of SAHA) were added to each well and incubated for 6, 12, 16, and 24 hours. After incubation, the Caspase-Glo® substrate reagent was added to each well followed by incubation for 30 minutes. After incubation, the luminescence signal was measured with a luminometer.

TICs [5] = experiment: RNA sequencing of drug treated TICs; assay type: cell-based, mouse; settings: ATRA 5 μg/ml, 16 hours
Procedure: RNA sequencing samples were collected at 16 hours of treatment with ATRA (5 μg/ml), SAHA (0.5 μg/ml) or combination treatment. Total RNA for RNA sequencing was extracted using RNeasy Plus Mini Kit (Qiagen), which includes a DNA depletion column. DNase I treatment and rRNA depletion with Tibozero technology were performed before RNA sequencing. Sample quantity and quality was verified by spectrophotometry (NanoDrop 1000), fluorimetry (Qubit), and the Aglient Bioanalyzer 2100 profiler. RNA Integrity Number (RIN) values of >7.0 and OD260/280=2.0-2.2 were used for RNA-seq library preparation. Extracted RNA (1 μg) was used for RNA sequencing (Illumina HiSeq2500 system). Sequenced reads were cleaned according to a rigorous pre-processing workflow (Trimmomatic-0.32) before mapping them to the mouse genome (mm10) using SHRiMP2.2.3 (http://compbio.cs.toronto.edu/shrimp/). Cufflinks2.0.2 (cuffdiff2-Running Cuffdiff) was then used to perform differential expression analysis with a FDR cutoff of 0.05 (95% confidence interval). A Perl script was used after differential expression analysis to improve the readability of the results files. Quality control information was generated via Fastqc: www.bioinformatics.babraham.ac.uk/projects/fastqc/. […] All gene expression profiles were analyzed by Partek Flow, Ingenuity Pathway Analysis and Gene Set Enrichment Analysis.

patient-derived TICs = experiment: Subcutaneous xenograft of patient-derived TICs in NSG mice; assay type: in vivo, mouse; settings: no SAHA, i.p.
Procedure: To establish prognostic biomarkers for the best combination chemotherapy, five different patient-derived TICs were tested for responses as xenografts in NSG mice for the best combination chemotherapy based on mutation/transcriptome subtypes. Anti-tumorigenic ability by ATRA+SAHA targeting TICs encapsulated with SAHA was validated (Table 3). […] As placebo treatment, solvent (DMSO) in an equal total volume (0.2 ml/mouse) was injected. Tumor growth kinetics was studied. Combination of ATRA with SAHA further inhibited the self-renewal abilities of TICs in vivo (FIG. 17E).

caspase-8 (extrinsic) and caspase-9 (intrinsic) pathway activity (TICs [4]): induced both
SMILES: CC1=C(/C=C/C(C)=C/C=C/C(C)=C/C(=O)O)C(C)(C)CCC1 [ATRA, all-trans retinoic acid]
viability at 20 µg/mL (CD133 (+) Huh7 cells [1]; 20 μg/ml, 48 hours): 41.4% | IC50 (CD133 (+) Huh7 cells [1]; CD133 killing effect, FIG. 44A): 4.06 µg/mL and 13.5 µM | viability at 48 h, 20 μg/ml [2]: 72% | reduction of colony numbers, anchorage independent growth in soft agar (CD133 (+) Huh7 cells [3]): 50% | genes differentially expressed from the controls (TICs [5]): 189 genes | anti-tumorigenic ability, % (animals/total) (patient-derived TICs; ATRA 100 mg/m^2/day): 22% (7/32) | anti-tumorigenic ability, % (animals/total) (patient-derived TICs; ATRA 150 mg/m^2/day): 19% (6/32)
